In PMC7507806 (ACS Pharmacology & Translational Science, 2020):
Where two headings read alike, the source gives them in different places. Residues, ends and D or L forms follow the SMILES beside them.

Columns and labels:
[1] = target: SARS-CoV-2 3CL^pro (Severe acute respiratory syndrome coronavirus 2, UniProt P0DTD1); format: biochemical
[2] = system: SARS-CoV-2 (USA_WA1/2020); test: SARS-CoV-2 cytopathic effect; format: cell-based; settings: Vero E6 cells; for EC50: read-out: SARS-CoV-2 CPE EC50
[3] = system: Vero E6 cells; settings: for CC50: read-out: Vero E6 cytotoxicity CC50
[4] = system: SARS-CoV-2 virus; settings: cited from earlier work

Compound | 3CL^pro inhibition max resp ([1]; Table 1 compounds) [%] | SARS-CoV-2 CPE efficacy ([2]; 72 h, Table 1 compounds) [%] | Vero E6 cytotoxicity efficacy ([3]; no virus, Table 1 compounds) [%] | CC50 ([3]; no virus, Table 1 compounds) [µM] | also measured
COc1ccc2cc(-c3cc(-c4cc(Cl)cc(Cl)c4)nn3[C@@H](C)c3ccc(C(=O)NCCC(=O)O)cc3)ccc2c1 [MK 0893] | 95.77 | 23.89 | 80.04 | – | –
O=C(O)Cc1cccc(OCCCN(Cc2cccc(C(F)(F)F)c2Cl)CC(c2ccccc2)c2ccccc2)c1 [GSK-3965] | – | – | – | – | 3CL^pro inhibition max resp [1]: 108.24%; IC50 ([1]; read-out: 3CL^pro inhibition IC50): 21.5 µM; SARS-CoV-2 CPE efficacy ([2]; Table 2 quenching compounds): 22.51%; Vero E6 cytotoxicity efficacy ([3]; Table 2 quenching compounds): 82.34%; CC50 ([3]; Table 2 quenching compounds): 14.1 µM
O=C1c2ccccc2-[n+]2ccc3c([nH]c4ccccc43)c21 [fascaplysin] | 63.44 | 0 | 99.28 | – | –
CSCC[C@@H](C=O)NC(=O)[C@H](CC(C)C)NC(=O)[C@H](CC(C)C)NC(C)=O [calpain inhibitor II] (Ac-Leu-Leu-Met-aldehyde) | – | – | – | – | activity in CPE and viral yield reduction assays [4]: active in both CPE and viral yield reduction assays
CCCCCCCc1ccc(CCc2cccc(O)c2C(=O)O)cc1 [MG-149] | – | – | – | – | Vero E6 cytotoxicity efficacy ([3]; Table 2 quenching compounds): 23.42%
O.O=C(OC[C@H]1O[C@@H](OC(=O)c2cc(O)c(O)c(O)c2)[C@H](OC(=O)c2cc(O)c(O)c(O)c2)[C@@H](OC(=O)c2cc(O)c(O)c(O)c2)[C@@H]1OC(=O)c1cc(O)c(O)c(O)c1)c1cc(O)c(O)c(O)c1 [penta-O-galloyl-β-D-glucose hydrate] | 109.94 | – | 80.28 | 11.2 | –
O=C1C(SCCO)=C(SCCO)C(=O)c2ccccc21 [NSC 95397] | 98.7 | 0 | 111.33 | 14.1 | EC50 ([2]; 72 h, Table 1 compounds): > 20 µM
O=C1C(Cl)=C(NCCN2CCOCC2)C(=O)c2ncccc21 [DA-3003–1] | – | 53.77 | 112 | 7.74 | activity in CPE assay [2]: exhibited CPE activity; EC50 ([2]; 72 h, Table 1 compounds): 4.47 µM
Cc1ccc(C(=O)Nc2ccc(S(=O)(=O)O)c3cc(S(=O)(=O)O)cc(S(=O)(=O)O)c23)cc1NC(=O)c1cccc(NC(=O)Nc2cccc(C(=O)Nc3cc(C(=O)Nc4ccc(S(=O)(=O)O)c5cc(S(=O)(=O)O)cc(S(=O)(=O)O)c45)ccc3C)c2)c1 [suramin sodium] | 99.49 | 0 | 0 | – | activity in CPE assay [2]: neither effective in CPE assay; cytotoxicity to Vero E6 cells ([3]; African green monkey): nor cytotoxic to Vero E6 cells
Brc1c(Br)c(Br)c2n[nH]nc2c1Br [TBB] | 77.96 | – | 80.93 | 8.91 | –
C/C1=C2/[N-][C@H]([C@H](CC(N)=O)[C@@]2(C)CCC(=O)NC[C@@H](C)OP(=O)([O-])O[C@H]2[C@@H](O)[C@@H](n3cnc4cc(C)c(C)cc43)O[C@@H]2CO)[C@]2(C)N=C(/C(C)=C3N=C(/C=C4N=C1[C@@H](CCC(N)=O)C\4(C)C)[C@@H](CCC(N)=O)[C@]\3(C)CC(N)=O)[C@@H](CCC(N)=O)[C@]2(C)CC(N)=O.[Co+3].[OH-] [hydroxocobalamin] | 89.56 | 0 | 0 | > 20 | activity in CPE assay [2]: neither effective in CPE assay; EC50 ([2]; 72 h, Table 1 compounds): > 20 µM; cytotoxicity to Vero E6 cells [3]: nor cytotoxic to Vero E6 cells
vitamin B12 | – | 0 | 0 | > 20 | 3CL^pro inhibition max resp [1]: 71.06%; EC50 ([2]; 72 h, Table 1 compounds): > 20 µM
CCCC(NC(=O)C(CC(C)C)NC(=O)OCc1ccccc1)C(=O)C(=O)NCc1ccccn1 (stereo not drawn) [calpain inhibitor XII] | – | – | – | – | activity in CPE and viral yield reduction assays [4]: active in both CPE and viral yield reduction assays
CC1(C)CCC2=C(O1)c1ccccc1C(=O)C2=O [beta-lapachone] | 60.88 | 0 | 15.06 | – | –
Oc1c(Cl)cc(Cl)c(Cl)c1Cc1c(O)c(Cl)cc(Cl)c1Cl [hexachlorophene] | – | – | – | – | Vero E6 cytotoxicity efficacy ([3]; Table 2 quenching compounds): 63.02%
CC1=NN(c2ccc(C)c(C)c2)C(=O)/C1=N\Nc1cccc(-c2cccc(C(=O)O)c2)c1O [eltrombopag olamine] | – | – | – | – | SARS-CoV-2 CPE efficacy ([2]; Table 2 quenching compounds): 74.39%; Vero E6 cytotoxicity efficacy ([3]; Table 2 quenching compounds): 68.67%
Cc1[nH]c(/C=C2\C(=O)Nc3cc(-c4ccccc4)ccc32)c(C)c1CCC(=O)O [SU 16f] | – | 0 | 23.57 | 7.94 | EC50 ([2]; 72 h, Table 1 compounds): > 20 µM
